Activity calls are given as the source filed them. The calls are words filed in the database; no cut-off is given here.

The results in this text go back to ChEMBL document CHEMBL5380835, “Discovery of Clinically Used Octenidine as NRAS Repressor That Effectively Inhibits NRAS-Mutant Melanoma” (J Med Chem, 2023).

In assay [1] the test system is SK-MEL-2. Briefly: Antitumor activity against human SK-MEL-2 cells xenografted in BALB/c nude mouse assessed as tumor growth inhibition at 10 mg/kg/day, ip by electronic caliper method. In kind it is functional, organism-based. The conditions noted are these: time 30.0 day, TDE = time-dependent effect. (In general: In xenograft studies the graft and the host belong to different species.)

Assay [2] has as its system SK-MEL-2. Put plainly: Antitumor activity against human SK-MEL-2 cells xenografted in BALB/c nude mouse assessed as T/C ratio at 10 mg/kg/day, ip administered for 30 days relative to control. In kind it is functional. The conditions noted are these: time 30 day.
Assay [3] relates to SK-MEL-2. Put plainly: Antitumor activity against human SK-MEL-2 cells xenografted in BALB/c nude mouse assessed as reduction in tumor weight at 10 mg/kg/day, ip administered for 30 days by electronic caliper method. To be noted: time 30.0 day. The format is functional, organism-based.
In assay [4] the test system is SK-MEL-2. Briefly: Antitumor activity against human SK-MEL-2 cells xenografted in BALB/c nude mouse assessed as tumor growth inhibition at 10 mg/kg/day, ip administered for 30 days relative to control. The format is functional. To be noted: SK-MEL-2, 720 h, time 30 day, read-out: TGI.

What is called T/C is the ratio of treated to control. With `CN(C)/N=N/c1[nH]cnc1C(N)=O` [DACARBAZINE], in assay [1], the Activity result is “Tde”. The T/C in assay [2] was found to be 28.9%. For the same molecule, the result in assay [3] was Active. Further, the inhibition in vivo at 10 mg/kg/day in assay [4] was found to be 57.7%.
